Source: US20220273688A1, “Treatment of Glycosylation Deficiency Diseases” (Wellstat Therapeutics Corporation, priority 2014, published 2022)

Key:
[1] = test system: Phosphoglucomutase-1 (PGM-1) deficiency; conditions: galactose 0.5 to 1 g/kg per day; cited from earlier work
[2] = test system: patient with GPT deficiency (Type II CDG); experiment: Treatment of a GPT deficiency patient with N-acetylglucosamine plus uridine triacetate; type: in vivo, human; conditions: uridine triacetate 2 g/m2 BSA twice per day with N-acetylglucosamine 200 mg/kg per day
Protocol: A patient displaying severe hypotonia, medically intractable seizures, developmental delay andmicrocephaly is diagnosed with a deficiency of activity of the enzyme GPT, a Type II CDG, by detection of a mutation in its encoding gene DPAGT-1. (“GPT” is the enzyme dolichol phosphate N-acetyl-glucosamine-1 phosphate transferase; “DPAGT-1” is the gene that encodes GPT.) The patient is treated with N-acetylglucosamine at a dose of 200 mg/kg per day. The patient is also treated with uridine triacetate a dosage of 2 grams per square meter of body surface area administered twice per day.

[3] = test system: patient with phosphoglucomutase-1 deficiency (Type II CDG); experiment: Treatment of a phosphoglucomutase-1 deficiency patient with d-galactose plus uridine triacetate; type: in vivo, human; conditions: uridine triacetate 2 g/m2 BSA twice per day with 1 gram/kg d-galactose per day
Text: A patient with multisystem disease consistent with phosphoglucomutase deficiency receives a definitive diagnosis via detection of impaired transferring glycosylation and a mutation in PGM-1.

[4] = test system: patient with congenital disorder of glycosylation (reduced availability of a uridine-diphospho sugar); experiment: Treatment of a CDG patient with oral uridine triacetate; type: in vivo, human; conditions: 2 grams per square meter of body surface area, three times per day
Protocol: A patient displaying developmental delays is diagnosed with a congenital disorder of glycosylation by detection of a mutation affecting glycosylation by reducing availability of a uridine-diphospho sugar, corroborated by biochemical measurements in cells from the patient. The patient is treated with oral uridine triacetate at a dose of 2 grams per square meter of body surface area, administered three times per day.

[5] = test system: patient with GNE myopathy; experiment: Treatment of a GNE myopathy patient with N-acetylmannosamine plus uridine triacetate; type: in vivo, human; conditions: uridine triacetate 2 g/m2 BSA twice per day with oral N-acetylmannosamine 3 to 10 grams per day
Protocol: A patient displaying progressive distal muscle weakness, with vacuoles and filamentous inclusions in a muscle biopsy, is diagnosed with GNE myopathy by testing for mutations in GNE, which result in impaired synthesis of endogenous sialic acid. The patient is treated with oral N-acetylmannosamine at a dose of 3 to 10 grams per day. The patient is also treated with uridine triacetate a dosage of 2 grams per square meter of body surface area administered twice per day.

SMILES	symptom resolution [1]	clinical response versus N-acetylglucosamine alone [2]	clinical response versus d-galactose alone [3]	response to treatment (protein glycosylation and clinical condition) [4]	clinical response versus N-acetylmannosamine alone [5]
O=C[C@H](O)[C@@H](O)[C@@H](O)[C@H](O)CO [galactose]	partial resolution of some symptoms				
CC(=O)OC[C@H]1O[C@@H](n2ccc(=O)[nH]c2=O)[C@H](OC(C)=O)[C@@H]1OC(C)=O [uridine triacetate, 2′,3′,5′-tri-O-acetyluridine]		improves the clinical response beyond that achieved with N-acetylglucosamine alone	improves the clinical response beyond that achieved with d-galactose alone	responds to treatment, displaying biochemical measures of improved protein glycosylation and concurrent improvements in clinical condition	improves the clinical response beyond that achieved with N-acetylmannosamine alone
